Results as given in patent publication US7105539B2, “Derivatives of succinic and glutaric acids and analogs thereof useful as inhibitors of phex” (Enobia Pharma, priority 2002, dated 2006).

What was measured:
rat mandibular defect = assay: Bone lesion repair in rat mandibular defect model (hydroxyapatite particles soaked in inhibitor); format: in vivo; conditions: for bone formation (scanning electron microscopy, % of total defect area): 14 days healing
Procedure: Osteogenic properties of PHEX inhibitors can be shown in a model of rat mandibular defect. For example, a 2 mm size bone defect was created in the rat mandible as described previously (Vu et al., 1999). Rats were anesthetized and the vestibular surface of the right mandibular ramus was exposed as follow: an incision was made through the skin along an imaginary line forming a 90° angle with the lower lip to access the muscle layer. A scalpel blade was used to make an incision parallel to the fibers of the deep portion of masseter muscle, about 2 mm posterior to the facial artery (largest branch of the external carotid), in the portion where it gives rise to the labial mandibular artery. The periosteum was elevated and the underlying bony surface exposed. A 2 mm×2 mm bony window was drilled between the second and third molar using a slow-speed dental drill with a carbide round burr size 1.4 mm (Brasseler) and a drill size 2 mm (Straumann Canada Ltd). Saline irrigation was used during the drilling. Porous hydroxyapatite particles (Fin-Ceramica Faenza s.r.l.) with pore size ranged from 450 to 600 μm were accommodated in the bony hole and pushed into it. The particles had been incubated previously in solutions of varying concentrations of PHEX inhibitor or vehicle for 16 to 24 hours at 4° C. Once the bony window was filled the lesion was covered with a membrane of hydroxyapatite (Fin-Ceramica Faenza s.r.l.) which was fixed to the surrounding bone surface with topical tissue adhesive. The muscle fibers were carefully repositioned on the mandible and sutured with absorbable surgical sutures (Chromic Gut, Ethicon Inc.). The skin was sutured for total coverage with silk sutures (Sherwood Davis & Geck, Wayne). After 7 days of treatment the bone lesion was exposed and varying concentrations of PHEX inhibitor or vehicle was reapplied to hydroxyapatite particles. Treatment was continued for another 7 days.
After the 14 day healing period, bone formation at the defect was evaluated by scanning electron microscopy and microcomputed tomography. Animals were sacrificed by intravascular perfusion through the left ventricle with 4% paraformaldehyde and 0.1% glutaraldehyde solution. Treated hemimandibles were taken, immersed in the fixative overnight at 4° C. then washed and kept in 0.1 M cacodylate buffer pH 8.0 until analysis. Specimens for quantification by scanning electron microscopy were dehydrated in a graded alcohol series and embedded in LR White resin (Marivac) for further sectioning along their longitudinal axis. […] Amount of bone tissue present in the sections was quantified by manual tracing using the MOP-3 system (Carl Zeiss) and was expressed as a percentage of the total defect area. […]

sPHEX = target: T1, sPHEX (Homo sapiens, UniProt P78562); assay: Protection of PHEX substrate PTHrP107-139 from sPHEX degradation (RP-HPLC); format: biochemical; conditions: 1×10^−5M inhibitor, 1.0 μg sPHEX, 30 min, 37° C.; without inhibitor approximately 75% degraded
T1 construct: The soluble form of the metallopeptidase PHEX (sPHEX) was purified to homogeneity; made in house
T1 sequence (P78562 53-749 limits assumed): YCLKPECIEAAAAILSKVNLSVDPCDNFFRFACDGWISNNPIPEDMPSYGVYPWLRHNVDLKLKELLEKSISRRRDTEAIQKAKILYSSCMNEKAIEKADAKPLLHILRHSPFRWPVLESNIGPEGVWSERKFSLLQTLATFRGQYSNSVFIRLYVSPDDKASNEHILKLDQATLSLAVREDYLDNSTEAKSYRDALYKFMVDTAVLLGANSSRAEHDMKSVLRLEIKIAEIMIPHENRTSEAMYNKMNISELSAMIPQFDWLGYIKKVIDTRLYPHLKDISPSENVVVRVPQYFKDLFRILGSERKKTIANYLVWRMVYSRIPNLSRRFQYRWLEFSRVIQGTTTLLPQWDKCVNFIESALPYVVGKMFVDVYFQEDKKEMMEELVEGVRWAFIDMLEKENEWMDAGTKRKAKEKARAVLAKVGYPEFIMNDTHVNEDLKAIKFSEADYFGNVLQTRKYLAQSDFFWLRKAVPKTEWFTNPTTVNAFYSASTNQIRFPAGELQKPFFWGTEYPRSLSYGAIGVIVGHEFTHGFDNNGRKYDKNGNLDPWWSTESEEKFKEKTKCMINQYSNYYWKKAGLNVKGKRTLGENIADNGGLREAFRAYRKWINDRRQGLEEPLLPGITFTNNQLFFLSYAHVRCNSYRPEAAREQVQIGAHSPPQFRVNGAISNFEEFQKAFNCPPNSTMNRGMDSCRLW
Procedure: In general, in order to show inhibition of sPHEX, the enzyme is incubated in the absence or the presence of the inhibiting compound, and a substrate is added in conditions that are suitable for sPHEX enzymatic activity. Hydrolysis of the substrate in the absence or the presence of the inhibiting compound is monitored.
For example, 1.0 μg of purified sPHEX was first incubated at 37° C. for 15 min with or without 1×10^−5M of compound MH-2-64C (FIG. 1) in 90 μl 50 mM MES (2-(N-morpholino)ethanesulfonic acid) pH 6.5, 150 mM NaCl. Then, 2.5 μg of peptide PTHrP107-139 in 10 μl of the same buffer were added and the incubation continued for 30 min. The reaction mixture also contained 1.3 μg of the amino acid Phe which was used as an internal standard. After the incubation period, the reaction was stopped by the addition of EDTA to a final concentration of 5 mM. Detection of cleavage products was performed by reverse phase high performance liquid chromatography (RP-HPLC) on a C18 μBondapak™ analytical column (Waters, Mississauga, ON, Canada) with a UV detector set at 220 nm. […] Results were quantified by comparing the area under the undigested peak of PTHrP107-139, after normalization for the amount of Phe present in the sample. […]

degradation of PTHrP107-139 by sPHEX (sPHEX): fully prevented
SMILES: O=C(O)CC(CC(=O)NO)C(=O)NCCc1ccc(-c2ccccc2)cc1 (centres unmarked) [Example 126, 3-(2-Biphenyl-4-yl-ethylcarbamoyl)-4-hydroxycarbamoyl-butyric acid]
bone formation (scanning electron microscopy, % of total defect area) (rat mandibular defect; 1×10^−5 M on hydroxyapatite particles, compared to saline): reduced significantly | bone formation (microcomputed tomography 3D reconstruction) (rat mandibular defect; high inhibitor dose, one representative specimen): reduced bone formation | bone around particles (microcomputed tomography 3D reconstruction) (rat mandibular defect; low dose of inhibitor vs particles soaked in saline, one representative specimen): more bone | bone formation (scanning electron microscopy, % of total defect area) (rat mandibular defect; lower concentrations on hydroxyapatite particles): significantly stimulated
